Assay results as given in patent publication US4315032A, “Process for preparation of adjacently disubstituted ketones” (Teitin Limited, priority 1979, dated 1982).
Read-outs that look alike come from different tables or passages of the source.

Assays:
[1] = test system: ulcer formation induced by indomethacin; test: inhibiting action on the formation of ulcer in rats induced by indomethacin; type: in vivo, Male rats (Sprague Dawley species); conditions: indomethacin 20 mg/kg peroral, compound 0.5 × 2 mg/kg, S.C.; for Inhibiting rate (%): inhibition of ulcer formation
Method: By the method of Y. H. Lee et al. [Arch. Int. Pharmacodyn. Ther., 192, 370 (1971)], the inhibiting action of the compound No. 122 in Example 11 and compound No. 158 in Example 21 on the formation of ulcer in rats induced by indomethacin, a typical non-steroid anti-inflammatory agent, was evaluated.
Male rats (Sprague Dawley species; body weight 240-270 g) were used in the experiment. These rats had been caused to fast for 24 hours in separate cages before the initiation of the experiment. Indomethacin was orally administered to these rats, and 6 hours later, they were killed. Formation of ulcer in the fundus part was examined by measuring the area of the ulcer-forming part under a microscope. The compounds Nos. 122 and 158 were each subcutaneously administered at the end of 30 minutes and 2 hours, respectively, after the administration of indomethacin. The ulcer formation inhibiting rate of these compounds against a predetermined dose of indomethacin was determined.
The indomethacin was administered as a 0.5 ml aqueous suspension (containing two drops of a Tween-type nonionic surfactant per 14 ml of water). The compounds Nos. 122 and 158 were given in the form of a solution in a phosphate buffer (pH 7.4).

[2] = test system: platelet aggregation (rabbit PRP); test: Activity of Inhibiting Platelet Aggregation In Vitro (rabbit PRP, ADP); type: cell-based; conditions: ADP-disodium salt 5 μM final, 37° C., 2 min pre-incubation, minimum concentration whose inhibiting rate exceeded 50%
Method: The platelet aggregation inhibiting activities of test compounds including 7-hydroxy PGE1 of this invention were tested using rabbit PRP. The results are shown in terms of their concentrations at 50% inhibition (IC50) of platelet aggregation. As an aggregating agent, ADP-disodiumsalt having a final concentration of 5 μM was used.
(1) Preparation of platelet-enriched plasma (PRP)
Citrated blood (consisting of 1 part by volume of […] sodium citrate and 9 parts by volume of the blood) was prepared by taking blood from the ear veins of male rabbits having a body weight of 2.0 to 3.0 kg (white ordinary species). The citrated blood was centrifuged at 100 G for 10 minutes at room temperature, and the supernatant (PRP) was separated.
The PRP obtained was stored at room temperature, and used as early as possible. PRP stored for more than 4 hours after preparation was not used.
(2) Preparation of test drugs
Each test drug was dissolved in ethyl alcohol to a concentration of 10 mg/ml or 1 mg/ml, and diluted with physiological saline to adjust its concentration.
(3) Preparation of the aggregating agent
ADP disodium salt (a product of Kyowa Hakko Kabushiki Kaisha) was dissolved in 0.1 M tris-HCl buffer (pH 7.8) to prepare a solution having a concentration of 50 μM (final concentration 5 μM).
(1) Degree of platelet aggregation in a blank
Physiological saline (25 μl) and 25 μl of the aggregating agent solution were added to 200 μl of PRP which had been warmed in a cuvette at 37° C. of an aggregometer to aggregate platelet. The aggregation curve was recorded for 3 minutes by an aggregometer (a product of Rika Denki Kabushiki Kaisha). The maximum degree of aggregation in this platelet aggregation was defined as the maximum degree of aggregation of the blank.
(2) Test for inhibition of platelet aggregation
The solution of test drug (25 μl) was added to 200 of PRP, and the mixture was pre-incubated for 2 minutes in a cuvette of an aggregometer. Then, 25 μl of the ADP disodium solution (50 μM) was added, and the aggregation curve was recorded for 3 minutes. The maximum degree of platelet aggregation within this period was measured, and the inhibiting rate was calculated from the following equation. The mimimum concentration (expressed as final concentration) of the drug whose inhibiting rate exceeded 50% was shown as an IC50 value. [formula]
For details of the in vitro platelet aggregation inhibiting test, see H. M. Davis, J. Phyllis, K. Paul and W. Terry: Thromb. Res. 11, 217-226 (1977) and R. E. Anderson and J. G. Foulks: Thromb. Haemos. 36, 343-359 (1976).

Structure (SMILES) | Ulcer formation (ulcer coefficient) Average value ± S.E.M. [1] | Inhibiting rate (%) [1] | IC50 [2] | IC50 ([2]; Oryctolagus cuniculus, Platelet, read-out: IC50)
CCCCCC(O)/C=C/C1C(O)CC(=O)C1C(O)CCCCCC(=O)OC (stereo not drawn) [No. 122, 2-(1-hydroxy-7-keto-8-oxanonyl)-3-(3-hydroxy-1-trans-octenyl)-4-hydroxycyclopentanone] | 12.1 ± 4.1 | 40.4% | – | –
CCCCCC(O)/C=C/C1C(O)CC(=O)C1C(O)CCCCCC(=O)OC (stereo not drawn) [No. 144, dl 2-(1-hydroxy-7-keto-8-oxanonyl)-3-(3-hydroxy-1-trans-octenyl)-4-hydroxycyclopentanone] | – | – | > 10 µg/mL | –
CCCCCC(O)/C=C/C1C(O)CC(=O)C1C(O)CCCCCC(=O)OC (stereo not drawn) [No. 146, dl 2-(1-hydroxy-7-keto-8-oxanonyl)-3-(3-hydroxy-1-trans-octenyl)-4-hydroxycyclopentanone] | – | – | 24.5 µg/mL | –
CCCCCC(O)/C=C/C1C(O)CC(=O)C1C(O)CCCCCC(=O)OC (stereo not drawn) [No. 148, dl 2-(1-hydroxy-7-keto-8-oxanonyl)-3-(3-hydroxy-1-trans-octenyl)-4-hydroxycyclopentanone] | – | – | > 10 µg/mL | –
CCCCCC(O)/C=C/C1C(O)CC(=O)C1C(O)CCCCCC(=O)OC (stereo not drawn) [No. 150, dl 2-(1-hydroxy-7-keto-8-oxanonyl)-3-(3-hydroxy-1-trans-octenyl)-4-hydroxycyclopentanone] | – | – | > 10 µg/mL | –
CCCCC[C@H](O)/C=C/C1C(C(O)CCCCCC(=O)OC)C(=O)C[C@H]1O (stereo partly drawn) [No. 156, 2-(1-hydroxy-7-keto-8-oxanonyl)-3-[3(S)-hydroxy-1-trans-octenyl]-4(R)-hydroxycyclopentanone] | – | – | – | 26.3 µg/mL
CCCCC[C@H](O)/C=C/C1C(C(O)CCCCCC(=O)OC)C(=O)C[C@H]1O (stereo partly drawn) [No. 158, 2-(1-hydroxy-7-keto-8-oxanonyl)-3-[3(S)-hydroxy-1-trans-octenyl]-4(R)-hydroxycyclopentanone] | 15.8 ± 5.1 | 22.2% | 41.5 µg/mL | –
